By IC50 is commonly meant the point on the concentration scale where inhibition reaches its midpoint. Lower therefore signals higher potency.

For this assay, the target named is human TrkA receptor (Homo sapiens (Human), UniProt P04629). In words: TrkA functional activity, DiscoverX PathHunter assay. Format: cell-based. The note with it: U2OS cells expressing human TrkA-PK, Shc1-EA and p75NTR; compound 1 h, then NGF at ~80% of maximal response for 3 h; luminescence.
human TrkA receptor, sequence (P04629 33-796): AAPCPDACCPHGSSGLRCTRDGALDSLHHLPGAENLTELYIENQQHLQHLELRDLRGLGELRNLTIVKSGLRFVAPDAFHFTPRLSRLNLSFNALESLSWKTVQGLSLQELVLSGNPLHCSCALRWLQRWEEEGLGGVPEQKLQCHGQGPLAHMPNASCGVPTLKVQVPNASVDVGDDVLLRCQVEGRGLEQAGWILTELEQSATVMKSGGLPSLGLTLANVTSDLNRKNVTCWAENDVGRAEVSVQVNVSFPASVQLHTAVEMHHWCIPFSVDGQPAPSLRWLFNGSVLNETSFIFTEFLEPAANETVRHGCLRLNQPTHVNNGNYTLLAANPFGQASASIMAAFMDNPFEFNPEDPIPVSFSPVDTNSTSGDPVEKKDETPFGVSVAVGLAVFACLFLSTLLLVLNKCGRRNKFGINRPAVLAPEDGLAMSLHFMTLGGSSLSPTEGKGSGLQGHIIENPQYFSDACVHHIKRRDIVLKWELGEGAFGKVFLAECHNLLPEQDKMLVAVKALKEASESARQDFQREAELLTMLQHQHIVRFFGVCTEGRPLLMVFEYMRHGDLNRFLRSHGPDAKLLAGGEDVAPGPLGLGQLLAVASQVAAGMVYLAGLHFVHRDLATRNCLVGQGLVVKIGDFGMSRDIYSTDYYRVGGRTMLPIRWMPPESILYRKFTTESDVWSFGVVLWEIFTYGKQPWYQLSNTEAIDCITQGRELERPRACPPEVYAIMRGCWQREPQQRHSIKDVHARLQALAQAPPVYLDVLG
For `NC(=O)Cc1ccc2c(NC(=O)c3cc(-c4ncccn4)c(C(F)(F)F)cc3F)n(-c3ccccc3)nc2c1` [Compound 94, N-(6-(2-Amino-2-oxoethyl)-2-phenyl-2H-indazol-3-yl)-2-fluoro-5-(pyrimidin-2-yl)-4-(trifluoromethyl)benzamide], the IC50 came to 4.4 nM. In other words, the single-digit nanomolar range.
In the case of `Cn1ccc(-c2cc(C(=O)Nc3c4cccc(CC(N)=O)c4nn3-c3ccccc3)c(F)cc2C(F)(F)F)n1` [Compound 95, N-(7-(2-Amino-2-oxoethyl)-2-phenyl-2H-indazol-3-yl)-2-fluoro-5-(1-methyl-1H-pyrazol-3-yl)-4-(trifluoromethyl)benzamide], the IC50 was determined as 0.64 nM.
Under `CNC(=O)Cc1ccc2c(NC(=O)c3cc(-c4ncccn4)c(C(F)(F)F)cc3F)n(-c3ccccc3)nc2c1` [Compound 96, 2-fluoro-N-{6-[2-(methylamino)-2-oxoethyl]-2-phenyl-2H-indazol-3-yl}-5-pyrimidin-2-yl-4-(trifluoromethyl)benzamide] stands 8.9 nM; under `O=C(CO)NCc1ccc2c(NC(=O)c3cc(-c4ncccn4)c(C(F)(F)F)cc3F)n(-c3ccccc3)nc2c1` [Compound 98, 2-Fluoro-N-(6-((2-hydroxyacetamido)methyl)-2-phenyl-2H-indazol-3-yl)-5-(pyrimidin-2-yl)-4-(trifluoromethyl)benzamide], 11 nM; under `Cn1ccc(-c2cc(C(=O)Nc3c4nccc(CN5C(=O)CNC5=O)c4nn3-c3ccccc3)c(F)cc2C(F)(F)F)n1` [Compound 99, N-(7-((2,5-dioxoimidazolidin-1-yl)methyl)-2-phenyl-2H-pyrazolo[4,3-b]pyridin-3-yl)-2-fluoro-5-(1-methyl-1H-pyrazol-3-yl)-4-(trifluoromethyl)benzamide], 0.88 nM.
Then `Cn1ccc(-c2cc(C(=O)Nc3c4ccc([C@@H](N)C(F)(F)F)cc4nn3-c3ccccc3)ccc2C(F)(F)F)n1` [Compound 100], with 2.7 nM.
Then `Cn1ccc(-c2cc(C(=O)Nc3c4ccc([C@H](N)C(F)(F)F)cc4nn3-c3ccccc3)ccc2C(F)(F)F)n1` [Compound 101, (S)—N-(6-(1-Amino-2,2,2-trifluoroethyl)-2-phenyl-2H-indazol-3-yl)-3-(1-methyl-1H-pyrazol-3-yl)-4-(trifluoromethyl)benzamide], with 1.8 nM.

Source of the values: patent publication US9862707B2, “TrkA kinase inhibitors, compositions and methods thereof” (Merck Sharp & Dohme Corp., priority 2014, dated 2018).
